The source made the active and inactive calls.
What was measured:
[1] = test system: Streptococcus sp. 'group A'; experiment: Streptococcus pyogenes SK(-)GAS viability under kanamycin – luminescence, BacTiterGlo, confirmation, counter-screen for streptokinase expression inhibitor project, dose response (AID 1900); type: functional, organism-based
[2] = HepG2 cell cytotoxicity, dose response, cytotoxicity control for non-replicating M. tuberculosis project (AID 489018); type: functional; conditions: Mycobacterium tuberculosis
Nonstructural protein 1 = Nonstructural protein 1 (Influenza A virus, UniProt Q194T2); type: functional, Influenza A virus (A/California/07/2009(H1N1))
[3] = THP-1 cell cytotoxicity, dose response, cytotoxicity control for non-replicating M. tuberculosis project (AID 489025); type: functional
[4] = microbe, parasite or virus in culture; type: functional; conditions: Mycobacterium tuberculosis
cells = type: functional
[5] = Vero E6 cell cytotoxicity, dose response, cytotoxicity control for non-replicating M. tuberculosis project, secondary assay (AID 492998); type: functional, VeroE6; conditions: Vero C1008
Streptococcus = experiment: GAS UMAA2166 growth inhibition – luminescence, BacTiterGlo, counter-screen for streptokinase expression inhibitor project, dose response (AID 1915); type: functional, organism-based;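 further: potency for reduction of bacterial viability or growth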
[6] = target: T1, Kappa-type opioid receptor (Homo sapiens, UniProt P41145); type: functional
[7] = target: T1, Kappa-type opioid receptor; type: functional; remark: listed apart in the source
Mu-type opioid receptor = Mu-type opioid receptor (Homo sapiens, UniProt P35372); experiment: HTS Image-Based Screen for Agonists of the MOR Receptor. [Related pubchem assays (depositor defined):AID1777, AID1785, AID1786, AID2133]; type: functional;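 further: imaging of beta-arrestin GFP recruitment into spots after receptor activation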
Beta-galactosidase = Beta-galactosidase (Escherichia coli, UniProt Q8VNN2); type: functional
[8] = target: T2, Delta-type opioid receptor (Homo sapiens, UniProt P41143); experiment: HTS Image-Based Screen for Antagonists of the DOR Receptor. [Related pubchem assays (depositor defined):AID1777, AID1785, AID1786, AID2133]; type: functional
[9] = target: T2, Delta-type opioid receptor; experiment: HTS Image-Based Screen for Agonists of the DOR Receptor. [Related pubchem assays (depositor defined):AID1777, AID1786, AID2133]; type: functional
[10] = target: G-protein coupled receptor 55 (Homo sapiens, UniProt Q9Y2T6); experiment: inhibition of LPI-stimulated GPR55 beta-arrestin translocation – imaging, U2OS, beta-arrestin-GFP, LPI agonist, primary screen (AID 2013); type: functional;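 further: antagonist potency measured as reduced agonist-driven arrestin aggregation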
HEK293 [11] = experiment: PMA/Ionomycin induced NF-kB luciferase assay in 293- NF-kB-Luc stable cells. [Related pubchem assays: 1299, 1270, 1295, 1375, 1287, 1281, 1293, 1291, 1289, 1280, 465, 1364, 1282, 1372, 1365, 1370, 1367, 1366, 1269, 1373, 1292, 1290, 1302, 1371, 1283, 1271, 1294, 1374, 1368, 1369 ]; type: functional, cell-based; conditions: Homo sapiens
[12] = target: T3, Luciferin 4-monooxygenase (Photinus pyralis, UniProt P08659); experiment: In vitro luciferase assay using purified luciferase. [Related pubchem assays: 1299, 1270, 1295, 1375, 1287, 1281, 1293, 1291, 1289, 1280, 465, 1364, 1282, 1372, 1365, 1370, 1367, 1366, 1266, 1373, 1292, 1290, 1302, 1371, 1283, 1271, 1294, 1374, 1368, 1369 ]
HEK293 [13] = experiment: TNF Induced NF-kB Luciferase in 293-NF-kB-Luc Stable Cells. [Related pubchem assays: 1266, 1299, 1269, 1373, 1292, 1290, 1302, 1371, 1283, 1270, 1295, 1271, 1375, 1294, 1374, 1281, 1293, 1291, 1289, 1280, 465, 1368, 1364, 1282, 1372, 1365, 1369, 1370, 1367, 1366 ]; type: functional, cell-based; conditions: Homo sapiens
[14] = target: T3, Luciferin 4-monooxygenase; experiment: inhibition of purified Photinus pyralis luciferase – biochemical, luminescence, dose response (AID 1891)
[15] = Luminescence Cell-Based Dose Confirmation HTS to Identify Inhibitors of Platelet Dense Granule Release. [Related pubchem assays: 1663 (Primary HTS), 1678 (Summary of Project)]; type: functional
HEK293 [16] = experiment: Cytotoxicity assay in HEK293 cells. [Related pubchem assays (depositor defined):AID1266, AID1269, AID1270, AID1271, AID1280, AID1281, AID1282, AID1283, AID1287, AID1289, AID1290, AID1291, AID1292, AID1293, AID1294, AID1295, AID1299, AID1302, AID1364, AID1365, AID1366, AID1367, AID1369, AID1370, AID1371, AID1372, AID1373, AID1374, AID1375, AID1384 …; type: functional, cell-based; conditions: Homo sapiens
HEK293 [17] = experiment: EBV LMP1 TES2 canonical NF-kB signalling blockers – cell-based, HEK293, luciferase, cherry-pick, dose response (AID 588343); type: functional; conditions: Homo sapiens
[18] = target: T4, Long-chain-fatty-acid--AMP ligase FadD28 (Mycobacterium tuberculosis, UniProt P9WQ59); experiment: Fluorescence polarization aasay to screen for inhibitors that compete for the binding of FadD28 to a bisubstrate Measured in Biochemical System Using Plate Reader - 2147-01_Inhibitor_Dose_CherryPick_Activity.; type: functional, Mycobacterium tuberculosis H37Rv
T4 sequence (P9WQ59 whole entry): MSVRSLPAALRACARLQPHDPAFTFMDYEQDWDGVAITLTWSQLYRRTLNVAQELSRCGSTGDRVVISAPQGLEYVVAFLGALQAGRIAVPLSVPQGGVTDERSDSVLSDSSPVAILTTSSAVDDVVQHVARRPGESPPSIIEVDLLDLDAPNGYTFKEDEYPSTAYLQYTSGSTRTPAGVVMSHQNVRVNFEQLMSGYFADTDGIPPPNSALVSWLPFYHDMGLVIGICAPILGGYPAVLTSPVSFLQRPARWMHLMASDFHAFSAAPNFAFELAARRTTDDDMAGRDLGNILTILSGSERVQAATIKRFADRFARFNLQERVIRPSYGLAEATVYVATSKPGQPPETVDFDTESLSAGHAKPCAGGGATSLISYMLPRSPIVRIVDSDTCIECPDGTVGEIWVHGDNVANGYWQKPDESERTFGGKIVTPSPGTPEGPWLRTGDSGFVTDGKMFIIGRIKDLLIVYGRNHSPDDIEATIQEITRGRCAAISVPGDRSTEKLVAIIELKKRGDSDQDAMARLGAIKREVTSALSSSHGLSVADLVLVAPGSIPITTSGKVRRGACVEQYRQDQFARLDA

[19] = target: T5, E3 ubiquitin-protein ligase XIAP (Homo sapiens, UniProt P98170); experiment: small molecules displacing peptide from XIAP – biochemical, IAP family, fluorescence polarization (AID 1018); type: functional
[20] = target: T5, E3 ubiquitin-protein ligase XIAP; experiment: Counter Screen using XIAP-Bir3 for Chemical Antagonists of Bir1/2 domains of IAP-family anti-apoptotic proteins. [Related pubchem assays (depositor defined):AID1018, AID1449, AID1514, AID1638, AID1749, AID1750, AID488957, AID488963]
[21] = target: Sphingosine 1-phosphate receptor 4 (Homo sapiens, UniProt O95977); experiment: Fluorescence dose response cell-based high throughput screening assay for agonists of the Sphingosine 1-Phosphate Receptor 4 (S1P4). [Related pubchem assays: 1509 (Primary screen.), 1523 (Confirmation screen in triplicates.)]; type: functional
[22] = target: Sphingosine 1-phosphate receptor 1 (Homo sapiens, UniProt P21453); experiment: Fluorescence-based counterscreen assay for S1P4 agonists: Cell-based dose response high throughput screening assay to identify agonists of the Sphingosine 1-Phosphate Receptor 1 (S1P1). [Related pubchem assays (depositor defined):AID1509, AID1523, AID1801, AID463107, AID463118, AID463119, AID463122, AID463123, AID463129, AID463225, AID504400, AID504460]; type: functional
Sequence of Sphingosine 1-phosphate receptor 1 (P21453 whole entry): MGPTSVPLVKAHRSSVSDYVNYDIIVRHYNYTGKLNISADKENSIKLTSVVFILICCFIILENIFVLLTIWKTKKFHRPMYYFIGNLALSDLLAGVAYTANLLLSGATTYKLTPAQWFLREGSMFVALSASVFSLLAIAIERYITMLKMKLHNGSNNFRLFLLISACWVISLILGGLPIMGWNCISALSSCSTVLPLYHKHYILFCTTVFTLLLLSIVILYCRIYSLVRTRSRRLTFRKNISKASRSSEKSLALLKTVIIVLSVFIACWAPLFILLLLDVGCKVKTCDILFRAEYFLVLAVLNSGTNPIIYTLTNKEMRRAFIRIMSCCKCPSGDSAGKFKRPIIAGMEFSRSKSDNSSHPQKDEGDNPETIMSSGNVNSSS

T2 sequence (P41143 whole entry): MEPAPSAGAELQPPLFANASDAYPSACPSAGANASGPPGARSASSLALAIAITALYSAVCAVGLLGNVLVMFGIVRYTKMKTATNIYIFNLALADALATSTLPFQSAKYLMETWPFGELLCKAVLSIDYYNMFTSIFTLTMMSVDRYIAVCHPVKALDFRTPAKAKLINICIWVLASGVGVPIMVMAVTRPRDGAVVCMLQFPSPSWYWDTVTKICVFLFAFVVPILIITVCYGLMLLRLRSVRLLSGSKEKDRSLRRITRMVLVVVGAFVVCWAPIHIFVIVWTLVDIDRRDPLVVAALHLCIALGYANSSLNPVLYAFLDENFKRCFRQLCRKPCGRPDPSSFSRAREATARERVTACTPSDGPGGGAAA
T1 sequence (P41145 whole entry): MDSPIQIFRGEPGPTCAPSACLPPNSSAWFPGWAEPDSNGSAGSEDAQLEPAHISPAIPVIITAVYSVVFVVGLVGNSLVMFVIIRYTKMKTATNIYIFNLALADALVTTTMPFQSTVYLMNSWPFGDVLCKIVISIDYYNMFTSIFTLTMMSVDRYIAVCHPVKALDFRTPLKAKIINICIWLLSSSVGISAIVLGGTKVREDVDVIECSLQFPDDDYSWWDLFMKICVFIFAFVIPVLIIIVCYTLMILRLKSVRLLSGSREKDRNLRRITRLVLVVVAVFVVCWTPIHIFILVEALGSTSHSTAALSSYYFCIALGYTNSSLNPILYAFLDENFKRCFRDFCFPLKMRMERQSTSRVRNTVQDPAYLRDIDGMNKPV
T3 sequence (P08659 whole entry): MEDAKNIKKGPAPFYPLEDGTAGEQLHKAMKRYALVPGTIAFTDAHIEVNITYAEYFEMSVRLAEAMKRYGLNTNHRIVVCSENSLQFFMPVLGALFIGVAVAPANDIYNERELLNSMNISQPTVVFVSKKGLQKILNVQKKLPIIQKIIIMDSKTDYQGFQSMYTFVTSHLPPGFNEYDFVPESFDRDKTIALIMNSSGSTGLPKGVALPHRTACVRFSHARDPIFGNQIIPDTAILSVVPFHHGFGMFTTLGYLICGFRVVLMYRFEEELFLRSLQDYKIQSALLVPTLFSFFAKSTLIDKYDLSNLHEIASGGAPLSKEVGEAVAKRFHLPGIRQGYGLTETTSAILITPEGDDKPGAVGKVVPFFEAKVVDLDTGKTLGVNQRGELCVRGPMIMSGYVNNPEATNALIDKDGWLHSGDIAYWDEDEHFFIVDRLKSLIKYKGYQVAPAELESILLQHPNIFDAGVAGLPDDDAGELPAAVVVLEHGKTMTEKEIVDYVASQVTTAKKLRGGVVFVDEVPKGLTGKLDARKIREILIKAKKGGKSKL
Sequence of Mu-type opioid receptor (P35372 whole entry): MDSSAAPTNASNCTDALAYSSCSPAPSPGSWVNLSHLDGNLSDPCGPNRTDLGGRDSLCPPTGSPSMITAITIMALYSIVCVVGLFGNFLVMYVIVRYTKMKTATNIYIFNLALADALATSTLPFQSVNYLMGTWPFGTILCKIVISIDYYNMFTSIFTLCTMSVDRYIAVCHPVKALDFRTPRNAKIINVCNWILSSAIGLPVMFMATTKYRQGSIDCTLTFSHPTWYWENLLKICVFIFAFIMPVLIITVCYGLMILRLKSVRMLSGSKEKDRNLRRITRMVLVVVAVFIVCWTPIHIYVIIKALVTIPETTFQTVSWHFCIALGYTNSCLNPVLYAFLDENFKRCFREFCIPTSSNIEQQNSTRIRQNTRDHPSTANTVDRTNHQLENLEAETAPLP
T5 sequence (P98170 whole entry): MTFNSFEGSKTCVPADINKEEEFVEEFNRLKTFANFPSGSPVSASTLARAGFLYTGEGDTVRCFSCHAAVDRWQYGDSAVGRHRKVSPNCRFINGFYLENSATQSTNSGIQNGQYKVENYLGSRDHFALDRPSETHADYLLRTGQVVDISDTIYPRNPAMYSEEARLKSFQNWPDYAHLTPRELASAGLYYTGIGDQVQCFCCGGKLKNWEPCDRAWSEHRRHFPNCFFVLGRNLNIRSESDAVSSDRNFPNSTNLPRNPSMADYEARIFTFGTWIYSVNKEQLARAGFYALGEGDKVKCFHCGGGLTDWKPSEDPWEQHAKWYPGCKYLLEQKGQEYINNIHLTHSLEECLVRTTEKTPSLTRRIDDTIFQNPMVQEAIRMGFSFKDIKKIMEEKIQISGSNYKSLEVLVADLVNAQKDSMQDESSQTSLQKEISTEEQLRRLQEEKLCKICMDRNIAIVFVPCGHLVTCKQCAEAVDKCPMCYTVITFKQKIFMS
Sequence of Beta-galactosidase (Q8VNN2 whole entry): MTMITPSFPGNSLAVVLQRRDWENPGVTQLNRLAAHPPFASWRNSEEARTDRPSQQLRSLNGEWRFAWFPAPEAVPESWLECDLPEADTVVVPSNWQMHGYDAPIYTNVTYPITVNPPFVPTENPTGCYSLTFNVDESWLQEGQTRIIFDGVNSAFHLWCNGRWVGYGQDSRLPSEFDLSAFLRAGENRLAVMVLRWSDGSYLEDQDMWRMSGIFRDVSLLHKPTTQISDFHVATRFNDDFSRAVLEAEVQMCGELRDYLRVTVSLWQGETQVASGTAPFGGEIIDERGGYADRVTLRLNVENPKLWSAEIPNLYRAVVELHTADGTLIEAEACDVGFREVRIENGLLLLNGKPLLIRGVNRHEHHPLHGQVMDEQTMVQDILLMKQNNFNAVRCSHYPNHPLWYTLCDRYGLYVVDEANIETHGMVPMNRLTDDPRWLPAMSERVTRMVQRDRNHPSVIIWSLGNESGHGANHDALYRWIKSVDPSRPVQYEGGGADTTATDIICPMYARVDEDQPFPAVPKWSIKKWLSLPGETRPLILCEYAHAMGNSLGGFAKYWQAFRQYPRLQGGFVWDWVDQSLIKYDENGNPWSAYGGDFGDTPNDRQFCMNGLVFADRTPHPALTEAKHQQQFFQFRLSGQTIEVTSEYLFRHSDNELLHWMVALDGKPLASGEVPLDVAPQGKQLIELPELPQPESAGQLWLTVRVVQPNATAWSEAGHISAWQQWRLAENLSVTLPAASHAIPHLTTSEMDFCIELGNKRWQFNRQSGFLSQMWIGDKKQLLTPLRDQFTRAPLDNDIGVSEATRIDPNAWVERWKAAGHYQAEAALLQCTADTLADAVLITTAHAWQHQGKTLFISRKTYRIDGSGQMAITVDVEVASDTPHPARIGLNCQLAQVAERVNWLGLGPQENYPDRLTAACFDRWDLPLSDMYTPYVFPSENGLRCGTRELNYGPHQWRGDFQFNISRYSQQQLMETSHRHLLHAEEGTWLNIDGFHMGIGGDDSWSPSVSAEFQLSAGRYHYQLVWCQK
Sequence of Nonstructural protein 1 (Q194T2 whole entry): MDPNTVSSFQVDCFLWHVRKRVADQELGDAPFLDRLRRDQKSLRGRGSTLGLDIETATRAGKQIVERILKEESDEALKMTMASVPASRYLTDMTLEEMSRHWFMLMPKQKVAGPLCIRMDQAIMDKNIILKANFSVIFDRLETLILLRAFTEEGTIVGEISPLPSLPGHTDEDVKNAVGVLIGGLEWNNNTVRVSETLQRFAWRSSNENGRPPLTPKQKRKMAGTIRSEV
Sequence of Sphingosine 1-phosphate receptor 4 (O95977 whole entry): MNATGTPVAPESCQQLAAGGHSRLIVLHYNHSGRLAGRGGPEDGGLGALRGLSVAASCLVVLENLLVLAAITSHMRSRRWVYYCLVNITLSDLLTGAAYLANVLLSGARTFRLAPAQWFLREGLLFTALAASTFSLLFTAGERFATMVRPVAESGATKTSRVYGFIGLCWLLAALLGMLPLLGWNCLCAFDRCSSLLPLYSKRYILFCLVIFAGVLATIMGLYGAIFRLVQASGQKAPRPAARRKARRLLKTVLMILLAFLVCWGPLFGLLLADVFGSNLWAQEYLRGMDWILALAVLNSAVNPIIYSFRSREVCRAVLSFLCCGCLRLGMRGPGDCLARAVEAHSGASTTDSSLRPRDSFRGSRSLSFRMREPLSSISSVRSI
Sequence of G-protein coupled receptor 55 (Q9Y2T6 whole entry): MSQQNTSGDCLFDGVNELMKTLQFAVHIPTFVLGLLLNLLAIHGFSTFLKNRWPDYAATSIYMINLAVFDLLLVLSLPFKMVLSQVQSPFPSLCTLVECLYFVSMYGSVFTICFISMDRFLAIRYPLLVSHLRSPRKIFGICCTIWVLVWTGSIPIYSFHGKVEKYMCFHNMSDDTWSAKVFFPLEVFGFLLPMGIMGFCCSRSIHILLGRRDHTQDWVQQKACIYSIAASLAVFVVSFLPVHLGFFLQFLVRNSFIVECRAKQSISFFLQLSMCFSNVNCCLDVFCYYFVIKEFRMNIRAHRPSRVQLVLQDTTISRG

**Q.** What does the source list for COCc1cc(O)nc(Nc2nc3ccccc3o2)n1?
**A.** EC50 [1]: 2.21 µM (active); CC50 [2]: 16.8 µM (active); IC50 (Nonstructural protein 1): 10.8 µM (active); CC50 [3]: 19.4 µM (active); CC50 [4]: 16 µM (active); IC50 (cells): 1.85 µM (active); CC50 [5]: 7.52 µM (active); EC50 (Streptococcus): 9.09 µM (active)

**Q.** Which results are given for Cc1cccc(C(=O)NC2CC3CCCC(C2)N3Cc2ccccc2)c1 (stereo not drawn)?
**A.** IC50 [6]: 19.9 µM; IC50 [7]: 15.7 µM (active); EC50 (Mu-type opioid receptor): > 32 µM (inactive); EC50 (Beta-galactosidase): > 31.5 µM (inactive); IC50 [8]: > 32 µM (inactive); EC50 [9]: > 32 µM (inactive)

**Q.** With Cc1ccc(N(C)C(=O)c2cc(S(=O)(=O)N3CCc4ccccc43)cn2C)cc1 as the compound, how does the IC50 [10] read?
**A.** 0.769 µM (active)

**Q.** Which results are given for CC(=O)c1ccc(-c2nc3c4ccccc4ccn3c2C(C)=O)o1?
**A.** EC50 (HEK293 [11]): 0.0552 µM (active); EC50 [12]: > 8 µM (not active); EC50 (HEK293 [13]): 0.503 µM (active); EC50 [14]: > 112 µM (not active); EC50 [15]: > 112 µM (not active); EC50 (HEK293 [16]): > 8 µM (inactive); AC50 (HEK293 [17]): 3.1 µM (active)

**Q.** Which results are given for COc1cc(/C=C2\SC(=S)N(NC(=O)c3ccc(O)c(OC)c3)C2=O)ccc1O?
**A.** IC50 [6]: > 32 µM; IC50 [7]: 14.9 µM (active); EC50 (Mu-type opioid receptor): > 32 µM (inactive); AC50 [18]: > 100 µM (inactive); EC50 (Beta-galactosidase): 10.3 µM (active); IC50 [8]: > 32 µM (inactive); EC50 [9]: > 32 µM (inactive)

**Q.** For Cc1ccccc1Oc1nnc(-c2cccs2)c2ccccc12, which IC50 [19] is on record?
**A.** > 100 µM (not active)

**Q.** What about the IC50 [20] of the same compound?
**A.** > 100 µM (inactive)

**Q.** Which EC50 [21] does the source give for Cn1c(SCC(=O)c2ccc3c(c2)OCO3)nnc1C1COc2ccccc2O1 (stereo not drawn) here?
**A.** > 49.8 µM (not active)

**Q.** What about the EC50 [22] of the same compound?
**A.** > 49.8 µM (inactive)

From ChEMBL document CHEMBL1201862, “PubChem BioAssay data set” (2004)
